Values of other authors as cited in patent US6468963B1, “Methods and formulations for reducing toxicity associated with diabetes treatments” (BioNumerik Pharmaceuticals, Inc., priority 2000, dated 2002).

Legend:
dogs = details: doses higher than 3750 mg/kg (accepted LD50 for common table salt)
humans = details: doses exceeding 40 g/m^2
mice = details: doses higher than 3750 mg/kg (accepted LD50 for common table salt)
[1] = accepted value; species not stated

Structure (SMILES)	adverse effects (dogs)	adverse effects (humans)	adverse effects (mice)	LD50 [1]
O=S(=O)([O-])CCSSCCS(=O)(=O)[O-].[Na+].[Na+] [Dimesna, disodium 2,2′-dithiobis ethane sulfonate]	no adverse effects	no adverse effects	no adverse effects	–
[Cl-].[Na+] [common table salt]	–	–	–	3750 mg/kg
